Assay results reported in patent US10336701B2, “Pyridin-2-one derivatives of formula (II) useful as EP3 receptor antagonists” (Janssen Pharmaceutica NV, priority 2017, dated 2019).

What was measured:
EP3 receptor [1] = target: T1, EP3 receptor (Homo sapiens, UniProt P43115); assay: [3H]-PGE2 binding assay (EP3 competition binding); conditions: read-out: [3H]-PGE2 Binding Ki
T1 construct: purchased Millipore HTS092M
T1 sequence (P43115 1-390): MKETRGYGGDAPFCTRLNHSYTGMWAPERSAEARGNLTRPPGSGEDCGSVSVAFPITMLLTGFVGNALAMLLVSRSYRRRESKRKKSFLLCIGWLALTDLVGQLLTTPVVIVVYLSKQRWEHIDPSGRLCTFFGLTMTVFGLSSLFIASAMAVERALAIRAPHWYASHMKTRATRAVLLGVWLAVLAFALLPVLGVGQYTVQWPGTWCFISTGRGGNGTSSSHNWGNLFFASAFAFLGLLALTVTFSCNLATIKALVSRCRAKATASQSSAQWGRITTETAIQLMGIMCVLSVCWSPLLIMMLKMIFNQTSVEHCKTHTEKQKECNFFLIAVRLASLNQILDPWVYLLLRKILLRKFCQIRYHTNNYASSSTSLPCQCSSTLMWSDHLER
Protocol: EP3 competition binding was determined using the following materials and experimental conditions:
Beads=Perkin Elmer RPNQ0001
EP3 membrane=Millipore HTS092M
Membrane concentration=2 μg/well
Beads concentration=0.25 mg/well
[3H]-PGE2=2 nM; DMSO—0.1%
Binding buffer=50 mM Tris, 10 mM MgCl2, 1 mM • EDTA, PH 7.4.
The binding buffer was removed from refrigeration (@ 4° C.) and allowed to warm to room temperature. Test compound (@ stock concentration of […] in DMSO) was serial dilutes (1:3) with 100% DMSO using Echo plate. Diluted test compound (30 nL) was dispensed to the 384-well assay plate (using Echo 550 Labcyte System). To each well was then added assay buffer (5 μl) and each well was spun. Beads were weighed out, dissolved in assay buffer to a concentration of 0.25 mg/15 μl. Original membrane was diluted with assay buffer to a concentration of 2 μg/5 μl. […] To each test well were then added diluted [3H]-PGE2 (5 μl), diluted membrane (5 μl), and dissolved beads (15 μl). The plate was equilibrated at room temperature on a plate shaker for 2 hours and then read with a TOPCOUNT scintillation plate reader. Results were analyzed using a Prism program with non-linear regression, one-site fit for Ki.

EP3 receptor [2] = target: T1, EP3 receptor; assay: CHO cell cAMP assay (forskolin and sulprostone stimulated, HTRF); assay type: cell-based; conditions: CHO cells; sulprostone 700 nM (EC80) and FSK 2 μM (EC70), 37° C. for 30 minutes; read-out: CHO_cAMP IC50
Protocol: For detection, a homogeneous competitive immunoassay (Time Resolved Fluorescence Energy Transfer (hTR-FRET)) was used.
Cells (6K cells per well) were plated in Poly-D-Lysine coated plates the day before the assay was to be run and were incubated at 37° C. […] At the start of the assay the buffer was removed from the cells and replaced with buffer containing test compound(s). Sulprostone at an EC80 dose (700 nM) and FSK at an EC70 dose (2 μM) were added to initiate the reaction (37° C. for 30 minutes).
FSK increases cAMP production and sulprostone decreases cAMP production produced by FSK. In this assay, EP3 antagonists will increase the cAMP to the level of cAMP generated by FSK alone.
Approximately one hour later the plates were read on an Envision (Perkin Elmer) in HTRF mode.
NSP, NSN, NSsample were converted to nM cAMP using the following equation: […]
IC50 values were determined from a […] (Hill equation) of a single 11-point compound dosing.

SMILES	Ki (EP3 receptor [1])	IC50 (EP3 receptor [2])
CCn1ncc2c(F)cc(-c3ccc(C(c4noc(=O)[nH]4)C(C)C)c(=O)[nH]3)cc21 (stereo not drawn) [Compound #277, 3-(1-(6-(1-ethyl-4-fluoro-1H-indazol-6-yl)-2-oxo-1,2-dihydropyridin-3-yl)-2-methylpropyl)-1,2,4-oxadiazol-5(4H)-one]	107 nM	548 nM
CCn1ncc2c(F)cc(-c3ccc(C(CN4CCN(S(C)(=O)=O)CC4)C(C)C)c(=O)[nH]3)cc21 (stereo not drawn) [Compound #109, 6-(1-ethyl-4-fluoro-1H-indazol-6-yl)-3-(3-methyl-1-(4-(methylsulfonyl)piperazin-1-yl)butan-2-yl)pyridin-2(1H)-one]	27 nM	115 nM
CCn1ncc2c(F)cc(-c3ccc(C4CN(S(=O)(=O)C(C)C)C4)c(=O)[nH]3)cc21 [compound 214, 6-(1-ethyl-4-fluoro-1H-indazol-6-yl)-3-(1-(isopropylsulfonyl)azetidin-3-yl)pyridin-2(1H)-one]	> 10000 nM	> 20000 nM
CC(C)(CC1OC(=O)NC1=O)c1ccc(-c2ccc3cccc(F)c3c2)[nH]c1=O (stereo not drawn) [compound 1, 5-(2-(6-(8-fluoronaphthalen-2-yl)-2-oxo-1,2-dihydropyridin-3-yl)-2-methylpropyl) oxazolidine-2,4-dione]	39 nM	88 nM
CC1(c2ccc(-c3ccc4ccccc4c3)[nH]c2=O)CNC(=S)N1 (stereo not drawn) [compound 286, 4-[2-hydroxy-6-(naphthalen-2-yl)pyridin-3-yl]-4-methylimidazolidine-2-thione]	64 nM	179 nM
CC(C)C(C(=O)NCCN(C)C)c1ccc(-c2ccc3c(c2)OCCN3C)[nH]c1=O (stereo not drawn) [compound 244, N-(2-(dimethylamino)ethyl)-3-methyl-2-(6-(4-methyl-3,4-dihydro-2H-benzo[b][1,4]oxazin-7-yl)-2-oxo-1,2-dihydropyridin-3-yl)butanamide]	501 nM	2390 nM
CCS(=O)(=O)N1CCC(c2ccc(-c3ccc4ccccc4c3)[nH]c2=O)CC1 [compound 190, 3-(1-(ethylsulfonyl)piperidin-4-yl)-6-(naphthalen-2-yl)pyridin-2(1H)-one]	32 nM	614 nM
CCn1ncc2c(F)cc(-c3ccc(C(CC)(CC)c4ccon4)c(=O)[nH]3)cc21 [Compound #29, 6-(1-ethyl-4-fluoro-1H-indazol-6-yl)-3-(3-(isoxazol-3-yl)pentan-3-yl)pyridin-2(1H)-one]	3 nM	9 nM
CCOC(=O)C(C1=CCCCC1)c1ccc(-c2ccc3ccccc3c2)[nH]c1=O (stereo not drawn) [Compound #280, ethyl 2-(cyclohex-1-en-1-yl)-2-(6-(naphthalen-2-yl)-2-oxo-1,2-dihydropyridin-3-yl)acetate]	76 nM	671 nM
O=c1[nH]c(-c2ccc3ccccc3c2)ccc1C1CCc2oncc2C1 (stereo not drawn) [compound 187, 6-(naphthalen-2-yl)-3-(4,5,6,7-tetrahydrobenzo[d]isoxazol-5-yl)pyridin-2(1H)-one]	> 10000 nM	> 20000 nM
CC(C)C1(c2ccc(-c3ccc4cccc(F)c4c3)[nH]c2=O)C(=O)Nc2nccn21 (stereo not drawn) [compound 155, 3-(6-(8-fluoronaphthalen-2-yl)-2-oxo-1,2-dihydropyridin-3-yl)-3-isopropyl-1H-imidazo[1,2-a]imidazol-2(3H)-one]	5 nM	20 nM
CCn1ncc2cc(C)c(-c3ccc(C(/C=C4/OC(=O)NC4=O)(CC)CC)c(=O)[nH]3)cc21 [compound 43, 5-(2-ethyl-2-(6-(1-ethyl-5-methyl-1H-indazol-6-yl)-2-oxo-1,2-dihydropyridin-3-yl)butylidene)oxazolidine-2,4-dione]	–	> 20000 nM
CCn1nc(C)c2ccc(-c3ccc(C(C=C4OC(=O)NC4=O)(CC)CC)c(=O)[nH]3)cc21 [compound 34, 5-(2-ethyl-2-(6-(1-ethyl-3-methyl-1H-indazol-6-yl)-2-oxo-1,2-dihydropyridin-3-yl)butylidene)oxazo-lidine-2,4-dione]	–	17600 nM
